The target in experiment [1] is T1, FOXP3 covalently linked to genomic DNA in HEK293T cells (Homo sapiens, UniProt Q9BZS1).
T1 construct: AVI tag (N); TEV site (N); expressed in transfected cells; host or cells: HEK293T
T1 sequence (Q9BZS1 1-431): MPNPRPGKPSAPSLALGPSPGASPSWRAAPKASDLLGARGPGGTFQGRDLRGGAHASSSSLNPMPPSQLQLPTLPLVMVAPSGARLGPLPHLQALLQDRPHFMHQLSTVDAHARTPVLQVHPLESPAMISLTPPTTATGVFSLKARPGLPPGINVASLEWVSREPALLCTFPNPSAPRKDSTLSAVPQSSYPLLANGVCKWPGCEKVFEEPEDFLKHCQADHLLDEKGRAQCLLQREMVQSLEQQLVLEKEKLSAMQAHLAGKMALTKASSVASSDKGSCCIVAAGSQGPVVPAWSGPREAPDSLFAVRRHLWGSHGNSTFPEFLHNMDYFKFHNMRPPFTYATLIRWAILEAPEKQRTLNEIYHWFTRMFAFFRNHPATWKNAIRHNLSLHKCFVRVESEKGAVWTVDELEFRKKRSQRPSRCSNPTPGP
The experiment can be described thus: TRIzol extraction of genomic DNA from BFPX-treated HEK293T cells, Benzonase digestion, anti-FLAG western blot. The following applies: probe 100 μM + UV (lanes 4 and 5) vs controls (lane 1-3). It is filed as cell-based. The protocol: FIG. 14D depicts for the same BFPX-treated HEK293T cells transfected with AVI-TEV-FLAG-FOXP3 described in (FIG. 14C), TRIzol was used to extract genomic DNA. Briefly, for each aliquot of 0.25 million of cells, lyse and homogenize the sample in 200 μl TRIzol™ Reagent. Incubate for 5 minutes to permit complete dissociation of the nucleoproteins complex. 40 μl of chloroform was then added to the sample to incubate for 3 min. The sample was then centrifuged for 15 minutes at 12,000×g at 4° C. to separate into a lower red phenol/chloroform-interphase layer and a colorless upper aqueous phase. The upper aqueous phase was removed by pipetting. […] Run at 200V for 40 minutes on 4%-15% SDS-PAGE gel and analyzed by western blot (Transfer at 20V (40 mA) overnight, block in 2% BSA in PBS for 45 min, Primary antibody: 1:2000 anti-FLAG; room temperature, 2 hr; Secondary antibody: anti mouse light chain kappa 1:100,000; SuperSignal™ Western Blot Substrate Bundle, Femto).
TRIzol uses strong denaturing reagent (e.g. 4 M guanidine thiocyanate) to lyse the cells and completely dissociate nucleoprotein complexes. The extracted genomic DNA was then digested extensively with Benzonase and analyzed by SDS PAGE gel and western blot. […]
For orientation: A western blot detects proteins with antibodies after separation by electrophoresis.

Experiment [2] addresses T2, FOXP3 in Hela cells (Homo sapiens, UniProt Q9BZS1).
T2 construct: AVI tag; TEV site; expressed in transfected cells; host or cells: Hela
T2 sequence (Q9BZS1 1-431): T1 sequence (Q9BZS1 1-431)
The experiment can be described thus: Capture of AVI-TEV-FLAG tagged FOXP3 complexes in transfected Hela cells, western blot. It is filed as cell-based. The protocol: FIG. 10B depicts Western blot analysis of Hela cells transfected with AVI-TEV-FLAG tagged FOXP3. For each lane, approximately one million of cells were used. Lane 1 was fixed with 1% formaldehyde (FA) for 10 min according to standard protocol. Lane 2, untreated control, Lane 3, UV only, lane 4 and lane 6 were treated with SPB-AAD of 1 or 10 μM, respectively but without UV illumination, lane 5 and lane 7 were treated with SPB-AAD of 1 or 10 μM, respectively and illuminated by UV365 (10 min, 30 W, LED, sample distance 3 cm, cooling at 4 degree C.). The cells were lysed using RIPA buffer and further digested by MNase. The sample mixtures were mixed with SDS loading dye (2% SDS, boil for 10 min) and run on SDS gel for western blot analyses of using Anti-FLAG antibody.
We have performed similar experiments with a different system, Hela cells transfected with AVI-TEV-FLAG tagged FOXP3.

Take `C#CCCC1(CCNC(=O)CCCOc2c3occc3cc3ccc(=O)oc23)N=N1` [SPB-AAD, N-(2-(3-(but-3-yn-1-yl)-3H-diazirin-3-yl)ethyl)-4-((7-oxo-7H-furo[3,2-g]chromen-9-yl)oxy)butanamide]: the “FOXP3 co-extracted with genomic DNA under strong denaturing conditions” value in experiment [1] was “showed FOXP3 proteins”. Also, in experiment [2] (10 μM (lane 7) vs 1 μM (lane 5)), the “dependence of higher molecular weight FOXP3 complex formation on probe concentration” value was “dosage dependent”. Moreover, the “capture of higher molecular weight FOXP3 complexes” value in experiment [2] (probe 1 or 10 μM + UV365 10 min (lanes 5 and 7)) is “can capture higher molecular weight FOXP3 complexes”.
